Reference: US8592394B2, “Synthetic derivatives beta glycolipids and compositions thereof for the treatment of pathologic disorders” (Enzo Therapeutics, Inc., priority 2003, dated 2013)

Test system: STAT4
Experiment: Immunoblot of liver lysates: STAT4
Assay type: in vivo, mice
Details: IP
Protocol: For ConA induced hepatitis experiments spleen and liver lysates were lysed in RIPA buffer containing 50 mM Tris, pH 7.4, 1% NP-40, 150 mM NaCl, 0.1% SDS, 0.5% sodium deoxycholate and protease inhibitors (5 μg/ml, Sigma), with protease and phosphatase (Sigma, Rehovot, Israel).
Lysates were centrifuged twice at 4° C. for 10 minutes in 14000 rpm. Equivalent amounts of lysates (15 μg/lane), determined by Bradford assay (Bio-Rad, Rehovot, Israel), were separated by sodium dodecyl sulfate polyacrylamide gel electrophoresis (SDS-PAGE) and transferred to nitrocellulose membranes.
Blots were developed with horseradish peroxidase-conjugated secondary antibodies (Jackson Laboratories Bar Harbor, Me.) and Western Blot-Luminol Reagent (Santa Cruz Biotechnology, CA, USA). Cell counting and western Blot quantification was performed using total Lab (Phoretix, USA) software.

SMILES: CCCCCCCCCCCCCC=CC(O)C(CO[C@@H]1OC(CO)[C@@H](O)C(O)C1O)NC(=S)NC12CC3CC(CC(C3)C1)C2 (stereo in doubt) [ALIB-97, N-adamantyl-N′-glucosylsphingosine thiourea]
- STAT4 expression in the liver (B6 mice): strikingly decreased
- STAT4 expression in the liver (CD1d−/− mice): remained unchanged
